Reference: patent US9474790B2, “Stable, protracted GLP-1/glucagon receptor co-agonists for medical use” (Novo Nordisk A/S, priority 2013, dated 2016)
Numbered stars: 1 amine (or outer) side, 2 acyl side, 3 side chain; on linkers, the order of the positions; unused ones are H or OH. Bridge positions count the residues as written; N and C are the ends. Square brackets hold non-standard residues; d marks the D form. Side chains are listed from the residue outwards. Peptide text beside a SMILES is read from it. I, II: the chains in the order shown. * marks the point of attachment. C18 diacid = O=C(O)CCCCCCCCCCCCCCCCC(=O)*; γGlu = O=C(O)[C@H](CCC(=O)[*:2])N[*:1]; Ac4c = NC1(C(=O)O)CCC1; AEEA = NCCOCCOCC(=O)O; Aib = CC(C)(N)C(=O)O

Columns and labels:
[1] = Thioflavin T (ThT) fibrillation assay for physical stability; assay type: physicochemical; settings: 250 μM in 10 mM HEPES buffer, pH 7.5, 37° C., shaking 960 rpm
In short: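 Fibrillation was followed by ThT (1 μM) fluorescence every 20 min, 444/485 nm, for 250 μM peptide in 10 mM HEPES pH 7.5 shaken at 960 rpm, 37° C. Lag time (t0−2τ) and apparent rate constant (1/τ) come from a sigmoidal fit. Recovery is % of initial concentration remaining soluble after centrifugation and filtration (RP-HPLC).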

[2] = Chemical stability assessment by RP-UPLC; assay type: physicochemical; settings: 333 μM, 8 mM phosphate buffer pH 7.3, 37° C. vs 5° C.
In short: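 Purity loss = (purity after 14 days at 5° C. minus that at 37° C.) relative to the 5° C. value, purity being main-peak area % by RP-UPLC with UV at 215 nm. Samples were 333 μM in 8 mM phosphate, pH 7.3; gradient adjusted for outlying retention times.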

Structure (SMILES) | THT assay Lag time (Ex. 76) [1] [h] | Purity loss; 14 days at 37° C. [2] [%]
CC(C)C[C@H](NC(=O)[C@H](Cc1ccc(O)cc1)NC(=O)[C@H](CCCCN)NC(=O)[C@H](CO)NC(=O)[C@H](CC(C)C)NC(=O)[C@H](CC(=O)O)NC(=O)[C@H](CO)NC(=O)[C@@H](NC(=O)[C@H](Cc1ccccc1)NC(=O)[C@@H](NC(=O)CNC(=O)[C@H](CCC(N)=O)NC(=O)C(C)(C)NC(=O)[C@@H](N)Cc1c[nH]cn1)[C@@H](C)O)[C@@H](C)O)C(=O)N[C@@H](CCC(=O)O)C(=O)N[C@@H](CO)C(=O)N[C@@H](CCCCN)C(=O)N[C@@H](CCCNC(=N)N)C(=O)N[C@@H](C)C(=O)N[C@@H](CCCNC(=N)N)C(=O)N[C@@H](CO)C(=O)N[C@@H](Cc1ccccc1)C(=O)N[C@H](C(=O)N[C@@H](CCC(N)=O)C(=O)N[C@@H](Cc1c[nH]c2ccccc12)C(=O)N[C@@H](CC(C)C)C(=O)N[C@@H](CC(C)C)C(=O)N[C@@H](CCCCNC(=O)CC[C@H](NC(=O)CC[C@H](NC(=O)[C@H](CO)NC(=O)[C@H](CCC(=O)O)NC(=O)[C@H](CO)NC(=O)CC[C@H](NC(=O)CC[C@H](NC(=O)CCCCCCCCCCCCCCCCC(=O)O)C(=O)O)C(=O)O)C(=O)O)C(=O)O)C(=O)N[C@H](C(N)=O)[C@@H](C)O)C(C)C [Example 69, N^ε28-[(4S)-4-carboxy-4-[[(4S)-4-carboxy-4-[[(2S)-2-[[(2S)-4-carboxy-2-[[(2S)-2-[[(4S)-4-carboxy-4-[[(4S)-4-carboxy-4-(17-carboxyheptadecanoylamino)butanoyl]amino]butanoyl]amino]-3-hydroxypropanoyl]amino]butanoyl]amino]-3-hydroxypropanoyl]amino]butanoyl]amino]butanoyl]-[Aib2,Leu10,Glu15,Lys17,Arg20,Ser21,Leu27,Lys28]-Glucagon amide] (H-H[Aib]QGTFTSDLSKYLESKRARSFVQWLLK([γGlu-γGlu-Ser-Glu-Ser-γGlu-γGlu-C18 diacid])T-NH2; N-terminus assumed) | 45 | 2
CC(C)C[C@H](NC(=O)[C@H](CC(=O)O)NC(=O)[C@H](CC(C)C)NC(=O)[C@H](Cc1ccc(O)cc1)NC(=O)[C@H](CCCCN)NC(=O)[C@H](CO)NC(=O)[C@H](CC(C)C)NC(=O)[C@H](CC(=O)O)NC(=O)[C@H](CO)NC(=O)[C@@H](NC(=O)[C@H](Cc1ccccc1)NC(=O)[C@@H](NC(=O)CNC(=O)[C@H](CCC(N)=O)NC(=O)C1(NC(=O)[C@@H](N)Cc2c[nH]cn2)CCC1)[C@@H](C)O)[C@@H](C)O)C(=O)N[C@@H](CCCNC(=N)N)C(=O)N[C@@H](CCCNC(=N)N)C(=O)N[C@@H](C)C(=O)N[C@@H](CCCNC(=N)N)C(=O)N[C@@H](CC(=O)O)C(=O)N[C@@H](Cc1ccccc1)C(=O)N[C@H](C(=O)N[C@@H](CCC(N)=O)C(=O)N[C@@H](Cc1c[nH]c2ccccc12)C(=O)N[C@@H](CC(C)C)C(=O)N[C@@H](CC(C)C)C(=O)N[C@@H](CCCCNC(=O)CC[C@H](NC(=O)CC[C@H](NC(=O)COCCOCCNC(=O)COCCOCCNC(=O)CC[C@H](NC(=O)CC[C@H](NC(=O)CCCCCCCCCCCCCCCCC(=O)O)C(=O)O)C(=O)O)C(=O)O)C(=O)O)C(=O)N[C@H](C(N)=O)[C@@H](C)O)C(C)C [Example 45, N^ε28-[(4S)-4-carboxy-4-[[(4S)-4-carboxy-4-[[2-[2-[2-[[2-[2-[2-[[(4S)-4-carboxy-4-[[(4S)-4-carboxy-4-(17-carboxyheptadecanoylamino)butanoyl]amino]butanoyl]amino]ethoxy]ethoxy]acetyl]amino]ethoxy]ethoxy]acetyl]amino]butanoyl]amino]butanoyl]-[Acb2,Leu10,Leu16,Arg20,Leu27,Lys28]-Glucagon amide] (H-H[Ac4c]QGTFTSDLSKYLDLRRARDFVQWLLK([γGlu-γGlu-AEEA-AEEA-γGlu-γGlu-C18 diacid])T-NH2; N-terminus assumed) | 45 | 3
CC(C)C[C@H](NC(=O)[C@H](Cc1ccc(O)cc1)NC(=O)[C@H](CCCCN)NC(=O)[C@H](CO)NC(=O)[C@H](CC(C)C)NC(=O)[C@H](CC(=O)O)NC(=O)[C@H](CO)NC(=O)[C@@H](NC(=O)[C@H](Cc1ccccc1)NC(=O)[C@@H](NC(=O)CNC(=O)[C@H](CCC(N)=O)NC(=O)C1(NC(=O)[C@@H](N)Cc2c[nH]cn2)CCC1)[C@@H](C)O)[C@@H](C)O)C(=O)N[C@@H](CCC(=O)O)C(=O)N[C@@H](CCC(=O)O)C(=O)N[C@@H](CCCNC(=N)N)C(=O)N[C@@H](CCCNC(=N)N)C(=O)N[C@@H](C)C(=O)N[C@@H](CCCNC(=N)N)C(=O)N[C@@H](CC(=O)O)C(=O)N[C@@H](Cc1ccccc1)C(=O)N[C@H](C(=O)N[C@@H](CCC(N)=O)C(=O)N[C@@H](Cc1c[nH]c2ccccc12)C(=O)N[C@@H](CC(C)C)C(=O)N[C@@H](CC(C)C)C(=O)N[C@@H](CCCCNC(=O)CNC(=O)[C@H](CO)NC(=O)[C@H](CCC(=O)O)NC(=O)CNC(=O)[C@H](CO)NC(=O)CC[C@H](NC(=O)CC[C@H](NC(=O)CCCCCCCCCCCCCCCCC(=O)O)C(=O)O)C(=O)O)C(=O)N[C@H](C(N)=O)[C@@H](C)O)C(C)C [Example 16, N^ε28-[2-[[(2S)-2-[[(2S)-4-carboxy-2-[[2-[[(2S)-2-[[(4S)-4-carboxy-4-[[(4S)-4-carboxy-4-(17-carboxyheptadecanoylamino)butanoyl]amino]butanoyl]amino]-3-hydroxypropanoyl]amino]acetyl]amino]butanoyl]amino]-3-hydroxypropanoyl]amino]acetyl]-[Acb2,Leu10,Glu15,Glu16,Arg20,Leu27,Lys28]-Glucagon amide] (I: H-H[Ac4c]QGTFTSDLSKYLEERRARDFVQWLLKT-NH2 / II: {C18 diacid-γGlu-γGlu}-SGESG; amide I:28-II:C; N-terminus assumed) | 45 | 3
CC(C)C[C@H](NC(=O)[C@H](Cc1ccc(O)cc1)NC(=O)[C@H](CCCCN)NC(=O)[C@H](CO)NC(=O)[C@H](CC(C)C)NC(=O)[C@H](CC(=O)O)NC(=O)[C@H](CO)NC(=O)[C@@H](NC(=O)[C@H](Cc1ccccc1)NC(=O)[C@@H](NC(=O)CNC(=O)[C@H](CCC(N)=O)NC(=O)C1(NC(=O)[C@@H](N)Cc2c[nH]cn2)CCC1)[C@@H](C)O)[C@@H](C)O)C(=O)N[C@@H](CCC(=O)O)C(=O)N[C@@H](CO)C(=O)N[C@@H](CCCNC(=N)N)C(=O)N[C@@H](CCCNC(=N)N)C(=O)N[C@@H](C)C(=O)N[C@@H](CCCNC(=N)N)C(=O)N[C@@H](CCC(=O)O)C(=O)N[C@@H](Cc1ccccc1)C(=O)N[C@H](C(=O)N[C@@H](CCC(N)=O)C(=O)N[C@@H](Cc1c[nH]c2ccccc12)C(=O)N[C@@H](CC(C)C)C(=O)N[C@@H](CC(C)C)C(=O)N[C@@H](CCCCNC(=O)CC[C@H](NC(=O)CC[C@H](NC(=O)COCCOCCNC(=O)COCCOCCNC(=O)CC[C@H](NC(=O)CCCCCCCCCCCCCCCCC(=O)O)C(=O)O)C(=O)O)C(=O)O)C(=O)N[C@H](C(N)=O)[C@@H](C)O)C(C)C [Example 44, N^ε28-[(4S)-4-carboxy-4-[[(4S)-4-carboxy-4-[[2-[2-[2-[[2-[2-[2-[[(4S)-4-carboxy-4-(17-carboxyheptadecanoylamino)butanoyl]amino]ethoxy]ethoxy]acetyl]amino]ethoxy]ethoxy]acetyl]amino]butanoyl]amino]butanoyl]-[Acb2,Leu10,Glu15,Arg20,Glu21,Leu27,Lys28]-Glucagon amide] (H-H[Ac4c]QGTFTSDLSKYLESRRAREFVQWLLK([γGlu-γGlu-AEEA-AEEA-γGlu-C18 diacid])T-NH2; N-terminus assumed) | 45 | 2
